Assays:
[1] = Pharmacokinetics of tramadol and O-desmethyl tramadol in SD rats with or without crizotinib; conditions: male, Sprague-Dawley, rat, serum, po, 20 mg/kg; for CL/F: CLz/F; for Vd/F: Vz/F; for half-life: t1/2z
Text: Ultra-performance liquid chromatography-tandem mass spectrometry (UPLC-MS/MS) was utilized to measure the concentration of both tramadol and O-desmethyl tramadol. Separation was achieved using a Waters Acquity UPLC BEH C18 column, with dimensions of 2.1 mm × 50 mm and 1.7-µm particle size (Waters Corp., Milford, MA, USA), and quantitation was completed using a Waters XEVO TQD triple quadruple mass spectrometer. The mobile phase was composed of 0.1% formic acid (A) and ACN (B), and the gradient elution was carried out with a flow rate of 0.4 mL/min, following the procedure: 90–10% A (0–1.4 min), 10–90% A (1.4–1.5 min), and 90% A (1.5–2.0 min). Positive mode was used to detect the analytes with the following transitions: m/z 264.2 →58.0, m/z 250.2 →58.2, and m/z 285.0 →154.0 for tramadol, O-desmethyl tramadol, and diazepam (used as an internal standard, IS), respectively. The collision energy was 20 V for tramadol and O-desmethyl tramadol, and 25 V for diazepam. The standard for tramadol and O-desmethyl tramadol were dissolved in a small amount of DMSO (the concentration was 1 mg/mL) then diluted with acetonitrile (the final concentration was 1 ng/mL–1,000 ng/mL). Diazepam was diluted with methanol gradually to 500 ng/mL).
SD male rats (280 ± 15 g) were purchased from the Shanghai Animal Experimental Center. Before the experiment, the rats were kept in the animal room for two weeks with adequate water and food in order to adapt to the new environment. The room temperature was kept at 20–25 °C and the humidity was kept at 50%–65%. The change period of light and dark conditions was 12 h, which simulates the change of day and night. All animal experiments were approved by the Ethics Committee of Wenzhou Medical University (Approval number: xmsq2022-0621).
Generally speaking, only when at least five or more animals are involved in the experiment can the results be convincing. Thus, twenty SD rats were randomly divided into four groups with five animals per group: group A received a single dose of 20 mg/kg of tramadol; group B received a single dose of 45 mg/kg of crizotinib and 20 mg/kg of tramadol; group C received multiple doses of 0.5% carboxymethylcellulose sodium salt (CMC-Na) for 7 days and a single dose of 20 mg/kg of tramadol; and group D received multiple doses of 45 mg/kg of crizotinib for 7 days and a single dose of 20 mg/kg of tramadol. Prior to the experiment, all rats were fasted for 12 h but allowed free access to water. Once the experiment began, 0.5% CMC-Na and crizotinib were administered to groups C and D for 7 days, respectively, then to groups A and B on the last day of the experiment. After 30 min, all rats were orally administered 20 mg/kg of tramadol. Blood samples were collected from the tail vein at 5 min, 15 min, 30 min, 1 h, 2 h, 3 h, 4 h, 6 h, 8 h, 10 h, 12 h, and 24 h following tramadol administration. […] The samples were centrifuged at 2400 × g for 10 min to obtain serum. Each 50 µL serum was mixed with 150 µL ACN and 20 µL IS (500 ng/mL). After vortexing for 2 min and centrifugation at 16200 × g for 10 min at 4 °C, the supernatant was obtained, then we used UPLC-MS/MS analysis to detect the concentration of tramadol and O-desmethyl tramadol. After the experiment, all the animals were euthanized by 5% isoflurane inhalation anesthesia.
The Michaelis–Menten, IC50, and Lineweaver-Burk plots were generated using GraphPad Prism 6.0 software (GraphPad Software, Boston, MA, USA) with corresponding values for Km, IC50, and Ki (inhibition constant).

opioid receptors = tested on: opioid receptors; parameters: method as in earlier work; conditions: ref Allegaert et al., 2015, De La Gastine et al., 2022, Gillen et al., 2000, Gong et al., 2014; cited from earlier work
[2] = tested on: tramadol metabolism (O-desmethyl tramadol production) in rat liver microsomes; test: Liver microsomal incubation assay: inhibition of tramadol metabolism (O-desmethyl tramadol production) in RLM; assay type: in vitro ADME; conditions: rat, pH 7.4, inhibitory rate on tramadol metabolism (production of O-desmethyl tramadol)
Method: All the substance meet the requirements for analysis.
To obtain the Michaelis kinetic parameters of tramadol in RLM and HLM, a 200 µL incubation system was established containing 2 µL RLM or HLM (0.2 mg/mL), 186 µL 1xPBS buffer (pH = 7.4), 2 µL tramadol (10–500 µM), and 10 µL NADPH (1 mM). The mixture was pre-incubated for 5 min without NADPH in a water bath shaking at 37 °C. Then, NADPH was added to initiate the reaction, and the mixture was incubated for another 30 min. The reaction was terminated by adding 400 µL of cold ACN and 20 µL of IS (500 ng/mL).
For drug-interaction screening, 100 µM of each drug (1.6 µL) was added to the system, and added PBS to the final volume of 200 uL. Tramadol concentration was set at 60 µM according to the Km.
To determine the half-maximal inhibitory concentration (IC50), the concentration of crizotinib was set at 0.01, 0.1, 1, 10, 25, 50, and 100 µM, while the concentration of tramadol was constant at 60 µM in RLM or 100 µM in HLM (according to Km).
All data were presented as mean ± SD (standard deviation).

[3] = Group A: single oral 20 mg/kg tramadol alone
[4] = Group B: 20 mg/kg tramadol with crizotinib 45 mg/kg single dose
[5] = Group C: 0.5% CMC-Na for 7 days, then single 20 mg/kg tramadol
[6] = Group D: crizotinib 45 mg/kg for 7 days, then single 20 mg/kg tramadol

Structure (SMILES)	AUC(0-t) [1, 3]	AUC(0-t) [1, 4]	AUC(0-t) [1, 5]	AUC(0-t) [1, 6]	AUC(0-inf) [1, 3]	AUC(0-inf) [1, 4]	AUC(0-inf) [1, 5]	AUC(0-inf) [1, 6]	CL/F [1, 3]	CL/F [1, 4]	CL/F [1, 5]	CL/F [1, 6]	Cmax [1, 3]	Cmax [1, 4]	Cmax [1, 5]	Cmax [1, 6]	Tmax [1, 3]	Tmax [1, 4]	Tmax [1, 5]	Tmax [1, 6]	further results
CN(C)C[C@H]1CCCC[C@]1(O)c1cccc(O)c1 [O-desmethyl tramadol]	934 ± 101 ng·h/mL	928 ± 145 ng·h/mL	1170 ng·h/mL	1230 ng·h/mL	937 ± 101 ng·h/mL	981 ± 125 ng·h/mL	1180 ng·h/mL	1250 ng·h/mL	360 mL/min/kg	344 mL/min/kg	288 mL/min/kg	268 mL/min/kg	229 ± 56.1 ng/mL	172 ± 72.1 ng/mL	292 ± 55.1 ng/mL	182 ± 65.8 ng/mL	0.8 ± 0.27 h	0.7 ± 0.27 h	1.2 ± 0.45 h	0.9 ± 0.65 h	Vd/F [1, 3]: 91.3 ± 12 L/kg; Vd/F [1, 4]: 170 ± 112 L/kg; Vd/F [1, 5]: 72.5 ± 25.4 L/kg; Vd/F [1, 6]: 94.7 ± 26.4 L/kg; half-life [1, 3]: 2.93 ± 0.09 h; half-life [1, 4]: 5.68 ± 3.69 h; half-life [1, 5]: 2.86 ± 0.71 h; half-life [1, 6]: 4.06 ± 0.91 h; affinity relative to tramadol (opioid receptors): more than 700 times
CNC(=O)c1cc(Oc2ccc(NC(=O)Nc3ccc(Cl)c(C(F)(F)F)c3)c(F)c2)ccn1 [regorafenib]	–	–	–	–	–	–	–	–	–	–	–	–	–	–	–	–	–	–	–	–	inhibition at 30 min, 100 µM [2]: 83.7%
COc1cccc(C2(O)CCCCC2CN(C)C)c1 (centres unmarked) [Tramadol, tramadol]	770 ± 169 ng·h/mL	1120 ng·h/mL	777 ± 233 ng·h/mL	1650 ng·h/mL	786 ± 165 ng·h/mL	1220 ng·h/mL	790 ± 226 ng·h/mL	1650 ng·h/mL	440 mL/min/kg	298 mL/min/kg	459 mL/min/kg	214 mL/min/kg	202 ± 82.7 ng/mL	245 ± 38.3 ng/mL	246 ± 57.6 ng/mL	294 ± 85.2 ng/mL	0.5 h	0.6 ± 0.22 h	1.6 ± 0.55 h	0.9 ± 0.65 h	Vd/F [1, 3]: 168 ± 88.2 L/kg; Vd/F [1, 4]: 154 ± 96.5 L/kg; Vd/F [1, 5]: 307 ± 309 L/kg; Vd/F [1, 6]: 51.4 ± 19.1 L/kg; half-life [1, 3]: 4.22 ± 1.68 h; half-life [1, 4]: 6.91 ± 5.73 h; half-life [1, 5]: 6.69 ± 5.14 h; half-life [1, 6]: 2.74 ± 0.56 h
CNC(=O)c1cc(Oc2ccc(NC(=O)Nc3ccc(Cl)c(C(F)(F)F)c3)cc2)ccn1 [sorafenib]	–	–	–	–	–	–	–	–	–	–	–	–	–	–	–	–	–	–	–	–	inhibition at 30 min, 100 µM [2]: 96.7%

Source: article PMC11144398, “Crizotinib inhibits the metabolism of tramadol by non-competitive suppressing the activities of CYP2D1 and CYP3A2” (PeerJ, 2024)
